{"source": "patent EP0326490B2", "about": "“Synthetic peptides and mixtures thereof for detecting HIV antibodies” (ADALTIS INC., priority 1988, dated 2004)", "key": {"HIV-1 positive sera [1]": {"tested_on": "HIV-1 positive sera", "conditions": "cited from earlier work; for HIV-1 positive sera reacting of sera tested: J. Virol. 61, 2639-2641, 1987"}, "[2]": {"experiment": "Stability of linear and cyclic peptide in coating buffers (HPLC, Ellman's test)", "assay_type": "physicochemical", "source_text": "Even though results presented in TABLE 5 clearly show the superiority of cyclic peptides over their linear counterpart in detecting HIV-1-antibodies, that increased sensitivity could have been underestimated because of probable cyclization and polymerization of the linear peptide after solubilization in a carbonate buffer (pH 9.6). That experiment was repeated with the linear 87 and cyclic 87c peptides dissolved in a carbonate buffer (pH 9.6) as before and also in 10% acetic acid (pH 2.7). […] It is believed that cyclization and polymerization also occured in the wells of the microtiter plates although the exact proportion of cyclic peptide bound to the plates versus linear has not been as yet determined."}, "HIV-1 positive sera [3]": {"tested_on": "HIV-1 positive sera", "experiment": "ELISA, single peptides identifying HIV-1 positive sera", "assay_type": "binding, human", "conditions": "single gp41 or gp120 peptide", "method": "According to this test a peptide or a peptide mixture of the present invention is adsorbed onto the wells of a microtiter plate. The wells are then treated with sera to be tested. After washing, anti-human IgG labeled with peroxidase is added to the wells. The determination of the peroxidase is performed with a corresponding substrate, e.g. with o-phenylene diamine. Also in this procedure the peroxidase can be exchanged by another label, e.g. by a radioactive or fluorescence label.\nEach well of the microtiter plate is saturated with 100 µl of a solution containing a peptide or mixture of peptides (5 µg/ml) and left overnight. The wells are emptied and washed twice with a washing buffer (Tris, 0.043M; NaCl, 0.5M;thimerosal, 0.01% w/v; Tween 20, 0.05% v/v; pH 7.4). The wells are then saturated with […] of washing buffer for 1 hr. at 37°C and washed once with the same buffer. Serum samples to be analyzed are diluted with specimen buffer (washing buffer plus casein, 0.05% w/v). The bells are rinsed with washing buffer prior to the addition of the diluted serum sample (0.1 ml). These are left to incubate for 1 hr. at room temperature. The wells are then emptied, washed twice rapidly and then once for two minutes with washing buffer. […] The wells are then emptied and washed twice rapidly with washing buffer and then five times in which the buffer was in contact with the well 2 minutes per washing. The substrate solution (3,3', 5,5'-tetramethylbenzidine, 8 mg per ml of DMSO) is diluted with 100 volumes 0.1 M citrate-acetate buffer, pH 5.6 containing 0.1% v/v of 30% H2O2 and added to each well (0.1 ml per well). After 10 minutes the contents of each well is treated with 0.1 ml 2N H2SO4 and the optical density read at 450 nm. All determinations are done in duplicate."}}, "note": "Positions of bridges follow the written chain, without caps; N, C: chain ends. Residues, ends and D or L forms follow the SMILES beside them. No end group written: not given here."}
{"molecule": "SGKLIC", "values": [{"measurement": "HIV-1 positive sera reacting of sera tested", "setting": "HIV-1 positive sera [1]; Gnann et al.", "value": "not immunoreactive with any of the 22 HIV-1 positive sera tested"}]}
{"molecule": "CC[C@H](C)[C@H](NC(=O)CNC(=O)[C@H](CC(C)C)NC(=O)[C@H](CC(C)C)NC(=O)[C@H](CCC(N)=O)NC(=O)[C@H](CCC(N)=O)NC(=O)[C@H](CC(=O)O)NC(=O)[C@H](CCCCN)NC(=O)[C@H](CC(C)C)NC(=O)[C@H](Cc1ccc(O)cc1)NC(=O)[C@H](CCCNC(=N)N)NC(=O)[C@H](CCC(=O)O)NC(=O)[C@@H](NC(=O)[C@H](C)NC(=O)[C@H](CC(C)C)NC(=O)[C@@H](NC(=O)[C@@H](N)CCCNC(=N)N)[C@@H](C)CC)C(C)C)C(=O)N[C@@H](Cc1c[nH]c2ccccc12)C(=O)NCC(=O)N[C@@H](CS)C(=O)N[C@@H](CO)C(=O)NCC(=O)N[C@@H](CCCCN)C(=O)N[C@@H](CC(C)C)C(=O)N[C@H](C(=O)N[C@@H](CS)C(=O)N[C@H](C(=O)N[C@H](C(=O)N[C@@H](C)C(=O)N[C@H](C(=O)N1CCC[C@H]1C(=O)N[C@@H](Cc1c[nH]c2ccccc12)C(=O)N[C@@H](CC(N)=O)C(=O)N[C@@H](C)C(=O)N[C@@H](CO)C(=O)O)C(C)C)[C@@H](C)O)[C@@H](C)O)[C@@H](C)CC", "note": "[Peptide 87] (H-RILAVERYLKDQQLLGIWGCSGKLICTTAVPWNAS-OH)", "values": [{"measurement": "stability in solution (HPLC, Ellman's test)", "setting": "[2]; 10% acetic acid (pH 2.7)", "value": "remained linear"}, {"measurement": "stability in solution (HPLC analysis)", "setting": "[2]; carbonate buffer (pH 9.6), room temperature", "value": "underwent cyclization and polymerization"}]}
{"molecule": "96: cyclic peptide, amino acid positions 604-629 of gp41-HIV-1 (CTTAVPWNASWSNKSLEQIWNHTTWM; also: cyclic peptide, ring not given here; UniProt P04578 604-629, looked up, fragment) [Peptide 96]", "values": [{"measurement": "% Positive Sera correctly Idenfitied", "setting": "HIV-1 positive sera [3]", "value": 100, "unit": "%"}]}
{"molecule": "12-amino acid sequence (600-611): 12-amino acid sequence (600-611) from gp41-(HIV-1), Gnann et al. (GKLICTTAVPWN; Transmembrane protein gp41; UniProt P04578 600-611, looked up, fragment)", "values": [{"measurement": "HIV-1 infected patients reactive of patients tested", "setting": "HIV-1 positive sera [1]; Gnann et al., J. Infect. Dis. 156, 261-267, 1987, patients from the United States", "value": "131 out of 132"}, {"measurement": "HIV-1 positive sera reacting of sera tested", "setting": "HIV-1 positive sera [1]; Gnann et al.", "value": "22 out of 22"}, {"measurement": "positive sera detected of sera tested", "setting": "HIV-1 positive sera [1]; tests at the Centers for Disease Control, Atlanta", "value": "78 out of 79"}]}
{"molecule": "88: cyclic peptide, amino acid positions 590-620 of gp41-HIV-1 (QQLLGIWGCSGKLICTTAVPWNASWSNKSLE; disulfide 9-15 (inferred); UniProt P04578 590-620, looked up, fragment) [Peptide 88]", "values": [{"measurement": "% Positive Sera correctly Idenfitied", "setting": "HIV-1 positive sera [3]", "value": 100, "unit": "%"}]}
{"molecule": "H-CGKIEPLGVAPTKAKRRVVQREKR-OH [Peptide 71]", "values": [{"measurement": "% Positive Sera correctly Idenfitied", "setting": "HIV-1 positive sera [3]", "value": 83, "unit": "%"}]}
{"molecule": "SGKLICTTAVPWNAS [short synthetic peptide covering residues 606 to 620 of gp41 (HIV-1)]", "values": [{"measurement": "specificity (samples correctly identified of samples tested)", "setting": "HIV-1 positive sera [1]; US Patent Appl. No. 120,027", "value": "63/63"}, {"measurement": "sensitivity", "setting": "HIV-1 positive sera [1]; prior-art reports, HIV-1 seropositive samples", "value": 89, "unit": "%"}]}
